# Results reported in article PMC5218480 (PLoS ONE, 2017).
# Tested on: MV-4-11 cells
# Experiment: Gene expression microarray analysis (Affymetrix PrimeView) and GSEA
# Assay type: cell-based, human
# Set-up: RFU PODN (11730768_x_at) / Fold change /veh PODN (11730768_x_at) / RFU LINC00158 (11744669_a_at) / Fold change /veh LINC00158 (11744669_a_at) / RFU DUSP10 (11751237_a_at) / Fold change /veh DUSP10 (11751237_a_at) / RFU ID3 (11757404_x_at) / Fold change /veh ID3 (11757404_x_at) / RFU PLEKHG5 (11737974_s_at) / Fold change /veh PLEKHG5 (11737974_s_at) / RFU LRRC4B (11730491_at) / Fold change /veh LRRC4B (11730491_at) / RFU GIMAP4 (11747438_a_at) / Fold change /veh GIMAP4 (11747438_a_at) / RFU KRT8 (11758183_x_at) / Fold change /veh KRT8 (11758183_x_at) / RFU CNN1 (11734310_a_at) / Fold change /veh CNN1 (11734310_a_at) / RFU VPS37D (11726825_at) / Fold change /veh VPS37D (11726825_at) / RFU C10orf10 (11716522_x_at) / Fold change /veh C10orf10 (11716522_x_at) / RFU KIR2DL2 /// KIR2DL4 /// KIR2DL5A /// KIR2DL5B /// KIR2DS1 /// KIR2DS2 /// KIR2DS3 /// KIR2DS4 /// KIR3DL3 /// KIR3DL3 /// KIR3DS1 (11738374_at) / Fold change /veh KIR2DL2 /// KIR2DL4 /// KIR2DL5A /// KIR2DL5B /// KIR2DS1 /// KIR2DS2 /// KIR2DS3 /// KIR2DS4 /// KIR3DL3 /// KIR3DL3 /// KIR3DS1 (11738374_at) / RFU C1QL1 (11718748_at) / Fold change /veh C1QL1 (11718748_at) / RFU TMPRSS4 (11747572_a_at) / Fold change /veh TMPRSS4 (11747572_a_at) / RFU HAMP (11756126_x_at) / Fold change /veh HAMP (11756126_x_at) / RFU RNFT2 (11725882_a_at) / Fold change /veh RNFT2 (11725882_a_at) / RFU NR4A2 (11747474_a_at) / Fold change /veh NR4A2 (11747474_a_at) / RFU ABCC12 (11746883_a_at) / Fold change /veh ABCC12 (11746883_a_at) / RFU TMEM136 (11760407_x_at) / Fold change /veh TMEM136 (11760407_x_at) / RFU CLDN22 /// WWC2 (11732394_at) / Fold change /veh CLDN22 /// WWC2 (11732394_at) / RFU HLA-DPB1 (11760878_x_at) / Fold change /veh HLA-DPB1 (11760878_x_at) / RFU SPINT1 (11716480_a_at) / Fold change /veh SPINT1 (11716480_a_at) / RFU GAP43 (11754022_s_at) / Fold change /veh GAP43 (11754022_s_at) / RFU A4GNT (11735810_at) / Fold change /veh A4GNT (11735810_at) / RFU PRB3 (11715151_x_at) / Fold change /veh PRB3 (11715151_x_at) / RFU TUBB4B (11761932_at) / Fold change /veh TUBB4B (11761932_at) / RFU CAPN14 (11732068_a_at) / Fold change /veh CAPN14 (11732068_a_at) / RFU TMCC2 (11721928_a_at) / Fold change /veh TMCC2 (11721928_a_at) / RFU IRGQ (11745062_a_at) / Fold change /veh IRGQ (11745062_a_at) / RFU FAM174B (11720279_a_at) / Fold change /veh FAM174B (11720279_a_at) / RFU TMPRSS4 (11748680_a_at) / Fold change /veh TMPRSS4 (11748680_a_at) / RFU FAM212B (11763350_a_at) / Fold change /veh FAM212B (11763350_a_at) / RFU PLEKHG5 (11743358_a_at) / Fold change /veh PLEKHG5 (11743358_a_at) / RFU ZSCAN30 (11745921_a_at) / Fold change /veh ZSCAN30 (11745921_a_at) / RFU CMKLR1 (11741424_a_at) / Fold change /veh CMKLR1 (11741424_a_at) / RFU LOC101060620 /// MAPK8IP1 (11723275_at) / Fold change /veh LOC101060620 /// MAPK8IP1 (11723275_at) / RFU SPTSSB (11747773_x_at) / Fold change /veh SPTSSB (11747773_x_at) / RFU PRSS12 (11739890_at) / Fold change /veh PRSS12 (11739890_at) / RFU BIN1 (11741810_x_at) / Fold change /veh BIN1 (11741810_x_at) / RFU WNT11 (11732464_a_at) / Fold change /veh WNT11 (11732464_a_at) / RFU C10orf10 (11716521_a_at) / Fold change /veh C10orf10 (11716521_a_at) / RFU C5orf56 (11738089_at) / Fold change /veh C5orf56 (11738089_at) / RFU CYB561 (11721691_x_at) / Fold change /veh CYB561 (11721691_x_at) / RFU ANKRD19P (11752326_a_at) / Fold change /veh ANKRD19P (11752326_a_at) / RFU OR2T12 /// OR2T33 /// OR2T8 (11738714_s_at) / Fold change /veh OR2T12 /// OR2T33 /// OR2T8 (11738714_s_at) / RFU VCAN (11748164_a_at) / Fold change /veh VCAN (11748164_a_at) / RFU JSRP1 (11732532_at) / Fold change /veh JSRP1 (11732532_at) / RFU KRTAP10-11 (11738290_x_at) / Fold change /veh KRTAP10-11 (11738290_x_at) / RFU MYO3A (11730013_a_at) / Fold change /veh MYO3A (11730013_a_at) / RFU EBF3 (11725865_a_at) / Fold change /veh EBF3 (11725865_a_at) / RFU CAMK2N1 (11719241_x_at) / Fold change /veh CAMK2N1 (11719241_x_at) / RFU C5orf56 (11738088_a_at) / Fold change /veh C5orf56 (11738088_a_at) / RFU OLFML3 (11715873_a_at) / Fold change /veh OLFML3 (11715873_a_at) / RFU LOC100653217 /// NTM (11731650_a_at) / Fold change /veh LOC100653217 /// NTM (11731650_a_at) / RFU MAPK11 (11762145_a_at) / Fold change /veh MAPK11 (11762145_a_at) / RFU FIZ1 (11724087_x_at) / Fold change /veh FIZ1 (11724087_x_at) / RFU OASL (11726364_x_at) / Fold change /veh OASL (11726364_x_at) / RFU SOX15 (11748057_x_at) / Fold change /veh SOX15 (11748057_x_at) / RFU CD79A (11719716_a_at) / Fold change /veh CD79A (11719716_a_at) / RFU HIST1H1D (11736915_at) / Fold change /veh HIST1H1D (11736915_at) / RFU CASKIN2 (11723855_a_at) / Fold change /veh CASKIN2 (11723855_a_at) / RFU LOC730098 (11760151_x_at) / Fold change /veh LOC730098 (11760151_x_at) / RFU OR4N2 (11742367_at) / Fold change /veh OR4N2 (11742367_at) / RFU PRRT2 (11749266_a_at) / Fold change /veh PRRT2 (11749266_a_at) / RFU SNX32 (11753110_a_at) / Fold change /veh SNX32 (11753110_a_at) / RFU CDHR5 (11726645_a_at) / Fold change /veh CDHR5 (11726645_a_at) / RFU RCAN1 (11760418_a_at) / Fold change /veh RCAN1 (11760418_a_at) / RFU FAM167A (11723789_a_at) / Fold change /veh FAM167A (11723789_a_at) / RFU FAM26E (11764081_at) / Fold change /veh FAM26E (11764081_at) / RFU ISYNA1 (11749810_s_at) / Fold change /veh ISYNA1 (11749810_s_at) / RFU ACY1 (11761880_at) / Fold change /veh ACY1 (11761880_at) / RFU 11764098_at / Fold change /veh 11764098_at / RFU SAMD14 (11745864_x_at) / Fold change /veh SAMD14 (11745864_x_at) / RFU NPB (11741838_a_at) / Fold change /veh NPB (11741838_a_at) / RFU TMPRSS6 (11731388_a_at) / Fold change /veh TMPRSS6 (11731388_a_at) / RFU KRTAP10-2 (11738614_at) / Fold change /veh KRTAP10-2 (11738614_at) / RFU ARHGAP8 /// PRR5-ARHGAP8 (11727945_x_at) / Fold change /veh ARHGAP8 /// PRR5-ARHGAP8 (11727945_x_at) / RFU KRTAP5-7 /// NADSYN1 (11734609_at) / Fold change /veh KRTAP5-7 /// NADSYN1 (11734609_at) / RFU RASL12 (11751679_a_at) / Fold change /veh RASL12 (11751679_a_at) / RFU CDKN2B (11736163_a_at) / Fold change /veh CDKN2B (11736163_a_at) / RFU PRF1 (11729649_at) / Fold change /veh PRF1 (11729649_at) / RFU, ZNF638 /// ZNF638-IT1 / Fold change vs veh, ZNF638 /// ZNF638-IT1 / RFU, PANK3 / Fold change vs veh, PANK3 / RFU, SH3YL1 / Fold change vs veh, SH3YL1 / RFU, ZEB2 / Fold change vs veh, ZEB2 / RFU, NRIP1 / Fold change vs veh, NRIP1 / RFU, PTTG1IP / Fold change vs veh, PTTG1IP / RFU, CAPN2 / Fold change vs veh, CAPN2 / RFU, MED14 / Fold change vs veh, MED14 / RFU, SNORA58 / Fold change vs veh, SNORA58 / RFU, C1orf63 / Fold change vs veh, C1orf63 / RFU, LRRFIP1 / Fold change vs veh, LRRFIP1 / RFU, NDUFAF7 / Fold change vs veh, NDUFAF7 / RFU, SLC12A2 / Fold change vs veh, SLC12A2 / RFU, IBTK / Fold change vs veh, IBTK / RFU, ESF1 / Fold change vs veh, ESF1 / Fold change vs veh, TMEM50B / RFU, TAOK1 / Fold change vs veh, TAOK1 / RFU, ACBD3 / Fold change vs veh, ACBD3 / RFU, TMA16 / Fold change vs veh, TMA16 / RFU, RWDD3 / Fold change vs veh, RWDD3 / RFU, BCAT1 / Fold change vs veh, BCAT1 / RFU, EDEM3 / Fold change vs veh, EDEM3 / RFU, TMEM33 / Fold change vs veh, TMEM33 / RFU, WDR75 / Fold change vs veh, WDR75 / RFU, AHCTF1 / Fold change vs veh, AHCTF1 / RFU, TFRC / Fold change vs veh, TFRC / RFU, ZDHHC17 / Fold change vs veh, ZDHHC17 / RFU, NOM1 / Fold change vs veh, NOM1 / RFU, ARL8B / Fold change vs veh, ARL8B / RFU, ZBTB11 / Fold change vs veh, ZBTB11 / RFU, TAMM41 / Fold change vs veh, TAMM41 / RFU, KIAA1704 /// LOC100996395 / Fold change vs veh, KIAA1704 /// LOC100996395 / RFU, ING1 / Fold change vs veh, ING1 / RFU, TRMT61B / Fold change vs veh, TRMT61B / RFU, FUBP3 / Fold change vs veh, FUBP3 / RFU, TP53 / Fold change vs veh, TP53 / RFU, TNKS2 / Fold change vs veh, TNKS2 / RFU, ZFP14 / Fold change vs veh, ZFP14 / RFU, ACTR2 / Fold change vs veh, ACTR2 / RFU, PPP3R1 / Fold change vs veh, PPP3R1 / RFU, PIK3R1 / Fold change vs veh, PIK3R1 / RFU, HNRNPA1 / Fold change vs veh, HNRNPA1 / RFU, RNF170 / Fold change vs veh, RNF170 / RFU, ZNF28 / Fold change vs veh, ZNF28 / RFU, RNGTT / Fold change vs veh, RNGTT / RFU, OGT / Fold change vs veh, OGT / RFU, BRD1 / Fold change vs veh, BRD1 / RFU, MARS / Fold change vs veh, MARS / RFU, ZNF655 / Fold change vs veh, ZNF655 / RFU, FAHD1 / Fold change vs veh, FAHD1 / RFU, BDP1 / Fold change vs veh, BDP1 / RFU, LRRCC1 / Fold change vs veh, LRRCC1 / RFU, ARID1A / Fold change vs veh, ARID1A / RFU, ZNF146 / Fold change vs veh, ZNF146 / RFU, ZNF330 / Fold change vs veh, ZNF330 / RFU, GPN3 / Fold change vs veh, GPN3 / RFU, C9orf123 / Fold change vs veh, C9orf123 / RFU, N4BP2L2 / Fold change vs veh, N4BP2L2 / RFU, ARFIP1 / Fold change vs veh, ARFIP1 / RFU, FAM179B / Fold change vs veh, FAM179B / RFU, BCL10 / Fold change vs veh, BCL10 / RFU, UHRF1BP1L / Fold change vs veh, UHRF1BP1L / RFU, BET1 / Fold change vs veh, BET1 / RFU, CNOT2 / Fold change vs veh, CNOT2 / RFU, ZNF268 / Fold change vs veh, ZNF268 / Fold change vs veh, ZNF507 / RFU, DGCR2 / Fold change vs veh, DGCR2 / RFU, WDSUB1 / Fold change vs veh, WDSUB1 / Fold change vs veh, HSP90B1 /// MIR3652 / RFU, ADSS / Fold change vs veh, ADSS / RFU, GK / Fold change vs veh, GK / RFU, ZNF148 / Fold change vs veh, ZNF148 / RFU, TAF9 / Fold change vs veh, TAF9 / RFU, SLC1A5 / Fold change vs veh, SLC1A5 / RFU, SLMO2 / Fold change vs veh, SLMO2 / RFU, ABCC4 / Fold change vs veh, ABCC4 / RFU, LOC101060439 /// RAP1B / Fold change vs veh, LOC101060439 /// RAP1B / RFU, RFX7 / Fold change vs veh, RFX7 / RFU, GTPBP10 / Fold change vs veh, GTPBP10 / RFU, CNEP1R1 / Fold change vs veh, CNEP1R1 / RFU, BIVM-ERCC5 /// ERCC5 / Fold change vs veh, BIVM-ERCC5 /// ERCC5 / RFU, ILF3 / Fold change vs veh, ILF3 / RFU 11762660_at / Fold change /veh 11762660_at / RFU VCAN (11757783_s_at) / Fold change /veh VCAN (11757783_s_at) / RFU DDX43 (11728927_at) / Fold change /veh DDX43 (11728927_at) / RFU KRT8 (11758188_x_at) / Fold change /veh KRT8 (11758188_x_at) / RFU NKD1 (11759106_at) / Fold change /veh NKD1 (11759106_at) / RFU SRD5A1 (11742802_a_at) / Fold change /veh SRD5A1 (11742802_a_at) / RFU TPSAB1 /// TPSB2 (11721975_s_at) / Fold change /veh TPSAB1 /// TPSB2 (11721975_s_at) / RFU GSTM3 (11746129_a_at) / Fold change /veh GSTM3 (11746129_a_at) / RFU IL23R (11737362_x_at) / Fold change /veh IL23R (11737362_x_at) / RFU TMEM51 (11727254_a_at) / Fold change /veh TMEM51 (11727254_a_at) / RFU PIWIL2 (11732686_x_at) / Fold change /veh PIWIL2 (11732686_x_at) / RFU ORM1 (11744905_x_at) / Fold change /veh ORM1 (11744905_x_at) / RFU CCDC152 (11743942_at) / Fold change /veh CCDC152 (11743942_at) / RFU ECM1 (11717891_a_at) / Fold change /veh ECM1 (11717891_a_at) / RFU IL23R (11748794_a_at) / Fold change /veh IL23R (11748794_a_at) / RFU TNFAIP8L3 (11732012_x_at) / Fold change /veh TNFAIP8L3 (11732012_x_at) / RFU MBOAT4 (11741988_at) / Fold change /veh MBOAT4 (11741988_at) / RFU 11764193_at / Fold change /veh 11764193_at / RFU TMEM53 (11763286_at) / Fold change /veh TMEM53 (11763286_at) / RFU MAGEB2 (11727129_at) / Fold change /veh MAGEB2 (11727129_at) / RFU TMEM200A (11744735_a_at) / Fold change /veh TMEM200A (11744735_a_at) / RFU CCDC152 (11751479_a_at) / Fold change /veh CCDC152 (11751479_a_at) / RFU FAM211A (11726209_a_at) / Fold change /veh FAM211A (11726209_a_at) / RFU RGS16 (11746705_a_at) / Fold change /veh RGS16 (11746705_a_at) / RFU VCAN (11755009_s_at) / Fold change /veh VCAN (11755009_s_at) / RFU RHOB (11743442_s_at) / Fold change /veh RHOB (11743442_s_at) / RFU RGS16 (11720943_a_at) / Fold change /veh RGS16 (11720943_a_at) / RFU RGS16 (11720944_at) / Fold change /veh RGS16 (11720944_at) / RFU, VPS4B / Fold change vs veh, VPS4B / RFU, CREB1 / Fold change vs veh, CREB1 / RFU, DNAJC13 / Fold change vs veh, DNAJC13 / RFU, GNAQ / Fold change vs veh, GNAQ / RFU, CDK5R1 / Fold change vs veh, CDK5R1 / RFU, ZRANB3 / Fold change vs veh, ZRANB3 / RFU, CUL4A / Fold change vs veh, CUL4A / RFU, CCNY / Fold change vs veh, CCNY / RFU, UFL1 / Fold change vs veh, UFL1 / RFU, COG3 / Fold change vs veh, COG3 / RFU, DIAPH2 / Fold change vs veh, DIAPH2 / RFU, SKA2 / Fold change vs veh, SKA2 / RFU, AFF3 / Fold change vs veh, AFF3 / RFU, LMF1 / Fold change vs veh, LMF1 / RFU, IPO11 / Fold change vs veh, IPO11 / RFU, DFFB / Fold change vs veh, DFFB / RFU, FOXP1 / Fold change vs veh, FOXP1 / RFU, CARD8 / Fold change vs veh, CARD8 / RFU, STRN3 / Fold change vs veh, STRN3 / RFU, ADK / Fold change vs veh, ADK / RFU, RASSF2 / Fold change vs veh, RASSF2 / RFU, WIPF1 / Fold change vs veh, WIPF1 / RFU, LARP1B / Fold change vs veh, LARP1B / RFU, RASA1 / Fold change vs veh, RASA1 / RFU, RB1 / Fold change vs veh, RB1 / RFU, PPFIA1 / Fold change vs veh, PPFIA1 / RFU, MAT2A / Fold change vs veh, MAT2A / RFU, CCT5 / Fold change vs veh, CCT5 / RFU, WDR92 / Fold change vs veh, WDR92 / RFU, CUX1 / Fold change vs veh, CUX1 / RFU, TTC7A / Fold change vs veh, TTC7A / RFU, TMEM135 / Fold change vs veh, TMEM135 / RFU, DEPTOR / Fold change vs veh, DEPTOR / RFU, CPM / Fold change vs veh, CPM / RFU, DNAJB6 / Fold change vs veh, DNAJB6 / RFU, CACNA2D3 / Fold change vs veh, CACNA2D3 / RFU, DTX4 / Fold change vs veh, DTX4 / RFU, TFCP2 / Fold change vs veh, TFCP2 / RFU, GMCL1 /// GMCL1P1 / Fold change vs veh, GMCL1 /// GMCL1P1 / RFU, AEBP2 / Fold change vs veh, AEBP2 / RFU, SNHG1 /// SNORD22 /// SNORD25 /// SNORD26 /// SNORD27 /// SNORD28 /// SNORD29 /// SNORD31 / Fold change vs veh, SNHG1 /// SNORD22 /// SNORD25 /// SNORD26 /// SNORD27 /// SNORD28 /// SNORD29 /// SNORD31 / Fold change (Aza/veh), C12orf56 (ProbeSet 11735607_a_at) / Fold change (ACY-1035/veh), C12orf56 (ProbeSet 11735607_a_at) / Fold change (Aza/veh), FGFR1OP (ProbeSet 11751329_s_at) / Fold change (ACY-1035/veh), FGFR1OP (ProbeSet 11751329_s_at) / Fold change (Aza/veh), VPS36 (ProbeSet 11739960_a_at) / Fold change (ACY-1035/veh), VPS36 (ProbeSet 11739960_a_at) / RFU SYPL1 (11715823_x_at) / Fold change /veh SYPL1 (11715823_x_at) / RFU IGFBP7 (11715501_s_at) / Fold change /veh IGFBP7 (11715501_s_at) / RFU REEP3 (11722064_at) / Fold change /veh REEP3 (11722064_at) / RFU IGLL1 (11728026_x_at) / Fold change /veh IGLL1 (11728026_x_at): dose or concentration left out as unconfirmed
# Conditions: ProbeSet 11738335_x_at; LIST B
smiles,measurement,value
Nc1ncn([C@@H]2O[C@H](CO)[C@@H](O)[C@H]2O)c(=O)n1 [azacitidine],"RFU, TP53",77.85 RFU
